# ChEMBL document CHEMBL1125956, “A new potent inhibitor for angiotensin converting enzyme: (R,S)-captopril-F3” (Bioorg Med Chem Lett, 1991)
# Biological target: T1, Angiotensin-converting enzyme (Oryctolagus cuniculus, UniProt P12822)
# T1 sequence (P12822 whole entry): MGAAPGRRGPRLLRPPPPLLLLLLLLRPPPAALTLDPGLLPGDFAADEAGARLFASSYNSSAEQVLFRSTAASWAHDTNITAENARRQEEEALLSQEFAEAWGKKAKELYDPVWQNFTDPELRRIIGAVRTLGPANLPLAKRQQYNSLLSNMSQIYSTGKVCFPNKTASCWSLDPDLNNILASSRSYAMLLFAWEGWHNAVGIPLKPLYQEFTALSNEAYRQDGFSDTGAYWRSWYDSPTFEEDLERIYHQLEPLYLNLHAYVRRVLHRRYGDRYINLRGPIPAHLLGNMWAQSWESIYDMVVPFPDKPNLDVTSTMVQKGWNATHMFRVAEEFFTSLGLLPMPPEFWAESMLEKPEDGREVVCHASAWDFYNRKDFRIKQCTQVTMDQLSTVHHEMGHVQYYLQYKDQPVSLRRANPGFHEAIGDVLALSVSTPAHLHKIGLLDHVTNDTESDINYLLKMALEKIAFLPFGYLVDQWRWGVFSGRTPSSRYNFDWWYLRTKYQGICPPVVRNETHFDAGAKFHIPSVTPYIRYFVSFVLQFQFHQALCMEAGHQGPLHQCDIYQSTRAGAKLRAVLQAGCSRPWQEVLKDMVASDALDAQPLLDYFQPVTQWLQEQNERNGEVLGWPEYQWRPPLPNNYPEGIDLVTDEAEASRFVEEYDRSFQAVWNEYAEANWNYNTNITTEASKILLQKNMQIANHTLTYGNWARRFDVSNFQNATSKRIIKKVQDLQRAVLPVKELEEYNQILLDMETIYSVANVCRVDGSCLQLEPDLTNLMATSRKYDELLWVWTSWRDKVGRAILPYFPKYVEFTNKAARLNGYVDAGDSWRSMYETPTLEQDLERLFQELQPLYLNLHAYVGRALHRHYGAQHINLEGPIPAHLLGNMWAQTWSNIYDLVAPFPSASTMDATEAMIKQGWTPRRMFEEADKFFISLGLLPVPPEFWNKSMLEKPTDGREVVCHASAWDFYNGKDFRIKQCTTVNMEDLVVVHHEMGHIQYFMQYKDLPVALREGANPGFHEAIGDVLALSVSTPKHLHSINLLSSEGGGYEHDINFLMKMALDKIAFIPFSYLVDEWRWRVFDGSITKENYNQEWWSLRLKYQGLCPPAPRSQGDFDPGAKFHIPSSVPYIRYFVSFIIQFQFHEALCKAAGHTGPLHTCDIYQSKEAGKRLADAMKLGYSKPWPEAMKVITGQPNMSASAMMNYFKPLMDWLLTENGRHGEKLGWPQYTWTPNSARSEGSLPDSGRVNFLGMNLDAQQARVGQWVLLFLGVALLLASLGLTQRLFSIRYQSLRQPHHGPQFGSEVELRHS
# Test: In vitro inhibitory activity was evaluated against angiotensin converting enzyme from rabbit in bovine buffered base
row,SMILES,IC50
1,O=C(O)[C@@H]1CCCN1C(=O)[C@@H](CS)C(F)(F)F,0.29 nM
2,O=C(O)[C@@H]1CCCN1C(=O)[C@H](CS)C(F)(F)F,480 nM
